Assay results from US11219621B2, “Methods for treating immunodeficiency disease” (X4 Pharmaceuticals, Inc., priority 2015, dated 2022).

Assays:
wild type CXCR4 = molecular target: T1, wild type CXCR4 (Homo sapiens, UniProt P61073); settings: wild type CXCR4 in Cf2Th; read-out: EC50 for SDF-1α, calcium flux; cited from earlier work
T1 construct: expressed in transfected cells; host or cells: Cf2Th (canine thymus cell line lacking CXCR4)

R334X CXCR4 variant = molecular target: T2, R334X CXCR4 variant (Homo sapiens, UniProt P61073); settings: R334X variant in Cf2Th; read-out: EC50 for SDF-1α, calcium flux; cited from earlier work
T2 construct: expressed in transfected cells; host or cells: Cf2Th (canine thymus cell line lacking CXCR4)

E343X CXCR4 variant = molecular target: T3, E343X CXCR4 variant (Homo sapiens, UniProt P61073); settings: E343X variant in Cf2Th; read-out: EC50 for SDF-1α, calcium flux; cited from earlier work
T3 construct: expressed in transfected cells; host or cells: Cf2Th (canine thymus cell line lacking CXCR4)

[1] = test system: granulocyte-macrophage (CFU-GM), erythroid (BFU-E) and multipotential (CFU-GEMM) progenitor cells; experiment: Progenitor/stem cell mobilization in mice after single subcutaneous injection; format: in vivo, C3H/HeJ mice; settings: 5 mg/kg s.c.
Method: All experiments were performed in […] mice. […] The progenitors were stimulated to form colonies in vitro with the combination of 1 U/mL rhu EPO, 50 ng/mL rmu SLF, 5% vol/vol pokeweed mitogen mouse spleen cell conditioned medium (PWMSCM), and 0.1 mM hemin. Plates were scored 7 days after incubation at 37° C., 5% CO2, lowered […] and in a humidified chamber.
In the first experiment (data shown in Table 6), mice received a dose of 5 mg/kg- and the number of progenitors in the circulating blood was measured at various time points (0.25, 0.5, 1, 2, 6 and 24 hours).

[2] = test system: granulocyte-macrophage (CFU-GM), erythroid (BFU-E) and multipotential (CFU-GEMM) progenitor cells; experiment: as above; format: in vivo, C3H/HeJ mice; settings: Table 8; progenitor cells per mL of blood; 5 mg/kg s.c.; @ - 60″ (1 h)
[3] = Table 8, @ - 60″ (1 h), vs control
[4] = Table 8, progenitor cells per mL of blood, @ - 60″ (1 h)
[5] = comparison, AMD3100 at 1 hour, X4P-001 peak over 0.25-2 hours

T1 sequence (P61073 whole entry): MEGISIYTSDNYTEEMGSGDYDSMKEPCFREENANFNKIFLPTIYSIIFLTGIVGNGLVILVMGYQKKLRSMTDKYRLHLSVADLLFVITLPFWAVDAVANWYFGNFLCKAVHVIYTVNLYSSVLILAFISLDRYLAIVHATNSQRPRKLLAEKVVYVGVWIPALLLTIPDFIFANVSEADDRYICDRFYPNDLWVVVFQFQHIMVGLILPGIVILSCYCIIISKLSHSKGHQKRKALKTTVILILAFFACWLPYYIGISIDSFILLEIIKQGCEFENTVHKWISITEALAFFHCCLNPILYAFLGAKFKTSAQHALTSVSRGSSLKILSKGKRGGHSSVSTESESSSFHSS

Compound: SDF-1α
- EC50 (wild type CXCR4): 13.6 nM
- EC50 (R334X CXCR4 variant): 11.3 nM
- EC50 (E343X CXCR4 variant): 15.3 nM

Compound: c1cc(CN2CCCNCCNCCCNCC2)ccc1CN1CCCNCCNCCCNCC1 [AMD3100, plerixafor, reference compound]
- BFU (BFU-E), Fold Chg [1, 3]: 3.12 fold
- GEMM (CFU-GEMM), Fold Chg [1, 3]: 4.35 fold
- GM (CFU-GM), Fold Chg [1, 3]: 9.11 fold
- Nucleated Cellularity PBL-LD, Fold Chg [1, 3]: 1.62 fold
- GEMM (CFU-GEMM), Mean [1, 4]: 138.5
- GM (CFU-GM), Mean [1, 4]: 1950.3
- Nucleated Cellularity PBL-LD, Mean ([1]; Table 8 comparison, @ - 60″ (1 h)): 1.008e+07 mL⁻¹
- Maximum fold-increase in BFU-E [1, 5]: 3.12 fold
- Maximum fold-increase in CFU-GEMM [1, 5]: 4.35 fold
- Maximum fold-increase in CFU-GM [1, 5]: 9.11 fold
- BFU (BFU-E), Mean [2]: 207.7
